The values that follow come from US7179829B2, “Substituted imidazolidines, process for their preparation, and their use as a medicament or diagnostic, and medicament comprising them” (Sanofi-aventis Deutschland GmbH, priority 2001, dated 2007).

By melting point is commonly meant the temperature, or range, at which the solid turns liquid. As a reminder, the IC50 is the concentration that inhibits the measured activity by half.

SMILES strings stand for the structures. Structures can show the parent of a compound that is named as a salt. Where two headings read alike, the source gives them in different places.

Series [1] addresses rNHE3 (Rattus norvegicus, UniProt P26433). The experiment in a line: recovery of intracellular pH (pHi) after acidification, BCECF fluorescence. In kind it is cell-based. Here is the method:
In this test, the recovery of the intracellular pH (pHi) after an acidification, which starts when the NHE is capable of functioning, even under bicarbonate-free conditions, was determined. For this purpose, the pHi was determined using the pH-sensitive fluorescent dye BCECF (calbiochem, the precursor BCECF-AM is employed). The cells were initially loaded with BCECF. The BCECF fluorescence was determined in a “ratio fluorescence spectrometer” (Photon Technology International, South Brunswick, N.J., USA) with excitation wavelengths of 505 and 440 nm and an emission wavelength of 535 nm, and was converted into the pHi using calibration plots. The cells were incubated in NH4Cl buffer (pH 7.4) (NH4Cl buffer: 115 mM NaCl, 20 mM NH4Cl, 5 mM KCl, 1 mM CaCl2, 1 mM MgSO4, 20 mM Hepes, 5 mM glucose, 1 mg/ml BSA; a pH of 7.4 is established with 1 M NaOH) even during the BCECF loading. The intracellular acidification was induced by addition of 975 μl of an NH4Cl-free buffer (see below) to 25 μl aliquots of the cells incubated in NH4Cl buffer. The subsequent rate of pH recovery was recorded in the case of NHE1 for two minutes, in the case of NHE2 for five minutes and in the case of NHE3 for three minutes. To calculate the inhibitory power of the tested substances, the cells were initially investigated in buffers in which complete or absolutely no pH recovery took place. For complete pH recovery (100%), the cells were incubated in Na^+-containing buffer (133.8 mM NaCl, 4.7 mM KCl, 1.25 mM CaCl2, 1.25 mM MgCl2, 0.97 mM Na2HPO4, 0.23 mM NaH2PO4, 5 mM Hepes, 5 mM glucose, a pH of 7.0 is established with 1 M NaOH). […] Recovery of the intracellular pH at the tested concentration of a substance was expressed as a percentage of the maximum recovery. Using the Sigma-Plot program, the IC50 value of the substance in question was calculated for the individual NHE subtypes using the percentages for pH recovery.

Series [2] concerns adrenergic alpha2 receptor. As to conditions: cited from earlier work.
The subject of series [3] is imidazoline I1 receptor. As to conditions: cited from earlier work.
The target in series [4] is NHE3 (Oryctolagus cuniculus, UniProt P26432). As to conditions: cited from earlier work.
Chain of NHE3 (P26432 30-832): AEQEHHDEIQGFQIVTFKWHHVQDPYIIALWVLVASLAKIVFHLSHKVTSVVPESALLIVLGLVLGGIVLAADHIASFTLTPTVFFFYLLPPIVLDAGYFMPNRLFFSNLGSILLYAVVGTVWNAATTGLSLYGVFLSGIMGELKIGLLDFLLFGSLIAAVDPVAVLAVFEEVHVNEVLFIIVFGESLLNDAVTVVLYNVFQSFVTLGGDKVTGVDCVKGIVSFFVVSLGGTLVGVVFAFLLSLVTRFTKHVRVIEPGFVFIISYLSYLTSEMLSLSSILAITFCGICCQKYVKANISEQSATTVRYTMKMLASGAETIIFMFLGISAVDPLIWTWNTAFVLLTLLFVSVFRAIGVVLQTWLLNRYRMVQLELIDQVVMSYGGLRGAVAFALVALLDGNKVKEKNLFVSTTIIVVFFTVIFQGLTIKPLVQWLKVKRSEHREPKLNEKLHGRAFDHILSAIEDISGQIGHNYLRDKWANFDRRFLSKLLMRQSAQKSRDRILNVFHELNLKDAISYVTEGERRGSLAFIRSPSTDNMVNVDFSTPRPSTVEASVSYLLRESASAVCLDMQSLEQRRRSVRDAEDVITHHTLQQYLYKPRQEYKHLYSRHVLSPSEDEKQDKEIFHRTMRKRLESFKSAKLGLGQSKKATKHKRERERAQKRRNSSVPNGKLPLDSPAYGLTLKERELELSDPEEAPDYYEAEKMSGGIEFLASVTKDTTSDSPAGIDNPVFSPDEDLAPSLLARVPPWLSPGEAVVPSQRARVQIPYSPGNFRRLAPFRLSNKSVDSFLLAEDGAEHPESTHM
The mark [5] stands for this setting: pH recovery recorded for three minutes, read-out: IC50 [μM], (rNHE3).

Chain of rNHE3 (P26433 29-831): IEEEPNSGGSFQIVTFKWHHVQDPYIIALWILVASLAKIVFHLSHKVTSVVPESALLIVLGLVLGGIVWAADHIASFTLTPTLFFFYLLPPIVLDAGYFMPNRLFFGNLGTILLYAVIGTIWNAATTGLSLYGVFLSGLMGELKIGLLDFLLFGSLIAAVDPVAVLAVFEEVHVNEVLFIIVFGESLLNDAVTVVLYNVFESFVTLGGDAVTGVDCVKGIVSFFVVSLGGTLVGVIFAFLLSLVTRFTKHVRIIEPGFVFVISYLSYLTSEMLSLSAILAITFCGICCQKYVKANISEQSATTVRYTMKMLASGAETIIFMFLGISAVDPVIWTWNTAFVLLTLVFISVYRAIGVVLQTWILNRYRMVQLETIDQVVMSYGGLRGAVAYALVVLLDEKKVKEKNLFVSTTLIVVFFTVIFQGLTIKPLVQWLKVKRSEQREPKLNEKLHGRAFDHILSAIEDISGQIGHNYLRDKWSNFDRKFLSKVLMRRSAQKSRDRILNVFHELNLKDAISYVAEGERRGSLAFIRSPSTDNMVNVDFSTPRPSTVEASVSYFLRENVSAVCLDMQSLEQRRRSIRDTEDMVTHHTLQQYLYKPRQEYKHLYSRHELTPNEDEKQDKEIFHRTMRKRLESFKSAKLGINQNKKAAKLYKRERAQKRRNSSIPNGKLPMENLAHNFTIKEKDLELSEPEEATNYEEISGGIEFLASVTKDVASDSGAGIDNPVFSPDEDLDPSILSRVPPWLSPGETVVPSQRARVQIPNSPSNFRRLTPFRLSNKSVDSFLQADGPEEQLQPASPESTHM

`Cl.c1ccc(Oc2ccccc2N=C2N[C@@H]3CCCC[C@H]3N2)cc1` came in with a melting point of 110 °C. On to `CC(C)[C@@H]1NC(=Nc2c(Cl)cccc2Cl)N[C@H]1C(C)C` (racemic) [Example 7, trans-(2,6-Dichlorophenyl)-(4,5-diisopropylimidazolidin-2-ylidene)amine hydrochloride], for which the IC50 in series [1] (setting [5]) was found to be 1.1 µM. `Cl.FC(F)(F)c1cccc(Cl)c1N=C1N[C@H]2CCCC[C@@H]2N1` (relative stereo) [Example 5, trans-(2-Chloro-6-trifluoromethylphenyl)-(octahydrobenzimidazol-2-ylidene)amine hydrochloride] showed a melting point of 160 to 165 °C. Besides, the IC50 in series [1] (setting [5]) is 19 µM. In the case of `Clc1cccc(Cl)c1N=C1NCCN1` [Clonidine], the “affinity for the adrenergic alpha2 receptor” value in series [2] is “high affinity”. Further, in series [3], the “affinity for the imidazoline I1 receptor” value is “high affinity”. `CC1NC(=Nc2c(Cl)cccc2Cl)NC1C` (centres unmarked) [Example 12, (2,6-dichlorophenyl)-(4,5-dimethylimidazolidin-2-ylidene)amine nitric acid salt]: the IC50 in series [1] is roughly 3 µM. For `CC(C)[C@@H](CC[C@@H](C)[C@H]1CC[C@H]2[C@@H]3[C@H](O)C[C@H]4C[C@@H](NCCCNCCCCN)CC[C@]4(C)[C@H]3CC[C@]12C)OS(=O)(=O)O` [Squalamine], the “time to maximum potency as NHE3 inhibitor” value in series [4] was “reaches its maximum potency only after one hour”.
